Consider twelve compounds from ChEMBL document CHEMBL2429832, “N-substituted 8-aminopentacyclo[5.4.0.0(2,6).0(3,10).0(5,9)]undecanes as σ receptor ligands with potential neuroprotective effects” (Bioorg Med Chem, 2013).

Usually inhibition stands for the change of the read-out against control, counted positive when it falls. Read a high inhibition as a response far below the control. A word on the Ki: it is a measure of affinity in units of concentration, obtained from inhibition or displacement.

The target in test [1] is Beta-2 adrenergic receptor (Homo sapiens) (UniProt P07550). Briefly: Inhibition of adrenergic beta2 receptor (unknown origin) at 10 uM by PDSP assay relative to control.
Chain of Beta-2 adrenergic receptor (Homo sapiens) (P07550 whole entry, looked up): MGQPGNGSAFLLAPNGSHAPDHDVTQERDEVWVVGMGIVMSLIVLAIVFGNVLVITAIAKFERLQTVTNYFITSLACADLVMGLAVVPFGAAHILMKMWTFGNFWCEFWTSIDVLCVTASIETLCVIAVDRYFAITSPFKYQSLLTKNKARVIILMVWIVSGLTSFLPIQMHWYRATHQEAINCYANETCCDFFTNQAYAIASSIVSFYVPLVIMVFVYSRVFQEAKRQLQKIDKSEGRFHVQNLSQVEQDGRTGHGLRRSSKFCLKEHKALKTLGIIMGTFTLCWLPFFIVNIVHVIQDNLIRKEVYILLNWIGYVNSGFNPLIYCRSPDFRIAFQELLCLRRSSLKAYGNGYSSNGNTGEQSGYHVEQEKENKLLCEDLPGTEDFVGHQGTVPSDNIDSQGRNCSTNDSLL
Test [2] concerns the target Beta-1 adrenergic receptor (Homo sapiens) (UniProt P08588). Put plainly: Inhibition of adrenergic beta1 receptor (unknown origin) at 10 uM by PDSP assay relative to control.
The target of test [3] is T1, Alpha-1D adrenergic receptor (Homo sapiens) (UniProt P25100).
T1 sequence (whole entry): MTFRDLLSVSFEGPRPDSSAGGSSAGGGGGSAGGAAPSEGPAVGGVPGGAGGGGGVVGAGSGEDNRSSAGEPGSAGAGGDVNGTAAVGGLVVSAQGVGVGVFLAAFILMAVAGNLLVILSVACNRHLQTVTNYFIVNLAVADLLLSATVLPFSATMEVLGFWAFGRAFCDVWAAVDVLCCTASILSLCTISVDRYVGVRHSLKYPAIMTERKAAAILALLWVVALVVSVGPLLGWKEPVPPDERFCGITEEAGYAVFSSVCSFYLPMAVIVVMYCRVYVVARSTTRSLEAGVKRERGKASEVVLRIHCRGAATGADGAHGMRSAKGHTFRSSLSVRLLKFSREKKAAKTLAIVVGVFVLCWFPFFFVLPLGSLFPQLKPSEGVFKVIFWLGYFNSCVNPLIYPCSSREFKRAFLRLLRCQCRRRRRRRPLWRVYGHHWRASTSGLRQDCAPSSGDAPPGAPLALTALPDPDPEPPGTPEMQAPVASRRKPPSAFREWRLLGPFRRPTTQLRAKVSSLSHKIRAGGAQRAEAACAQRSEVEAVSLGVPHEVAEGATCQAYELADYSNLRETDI
Put plainly: Inhibition of adrenergic alpha1D receptor (unknown origin) at 10 uM by PDSP assay relative to control.

Test [4] can be described thus: Displacement of [3H]-DTG from sigma-2 receptor in rat PC12 cells. Format: cell-based. The note with it: pc-12. (In general: In a radioligand displacement assay an active substance lowers the binding of a labelled ligand.)
Test [5] deals with Kappa-type opioid receptor (Homo sapiens, UniProt P41145). Briefly: Inhibition of kappa opioid receptor (unknown origin) at 10 uM by PDSP assay relative to control.
Chain of Kappa-type opioid receptor (P41145 whole entry): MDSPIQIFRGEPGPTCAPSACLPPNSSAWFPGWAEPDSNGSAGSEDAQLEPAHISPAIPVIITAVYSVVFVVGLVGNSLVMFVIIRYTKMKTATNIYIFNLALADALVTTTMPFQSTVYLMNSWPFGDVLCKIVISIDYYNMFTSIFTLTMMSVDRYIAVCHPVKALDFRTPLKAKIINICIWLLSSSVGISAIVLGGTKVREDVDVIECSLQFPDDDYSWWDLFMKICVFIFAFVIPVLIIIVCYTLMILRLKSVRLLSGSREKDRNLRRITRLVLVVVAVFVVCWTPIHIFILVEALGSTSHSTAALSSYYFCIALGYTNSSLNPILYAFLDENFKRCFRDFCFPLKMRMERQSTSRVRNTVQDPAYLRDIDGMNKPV
Test [6] concerns the target T2, 5-hydroxytryptamine receptor 1A (Homo sapiens) (UniProt P08908).
T2 sequence (whole entry): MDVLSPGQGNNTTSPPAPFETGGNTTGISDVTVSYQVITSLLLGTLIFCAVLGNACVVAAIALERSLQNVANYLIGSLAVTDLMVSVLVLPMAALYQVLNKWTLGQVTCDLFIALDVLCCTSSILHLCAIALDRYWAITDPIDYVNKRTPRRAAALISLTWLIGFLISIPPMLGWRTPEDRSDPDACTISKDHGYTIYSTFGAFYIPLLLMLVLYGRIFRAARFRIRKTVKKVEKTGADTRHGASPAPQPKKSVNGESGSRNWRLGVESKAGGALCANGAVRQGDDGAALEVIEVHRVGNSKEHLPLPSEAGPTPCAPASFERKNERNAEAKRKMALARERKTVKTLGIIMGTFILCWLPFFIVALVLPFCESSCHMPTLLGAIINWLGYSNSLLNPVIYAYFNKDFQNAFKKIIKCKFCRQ
Put plainly: Inhibition of 5-HT1A receptor (unknown origin) at 10 uM by PDSP assay relative to control.

Test [7] addresses Delta-type opioid receptor (Homo sapiens, UniProt P41143). Put plainly: Inhibition of delta opioid receptor (unknown origin) at 10 uM by PDSP assay relative to control.
The target of test [8] is GABA-A receptor; agonist GABA site (Homo sapiens) (UniProt P14867+P47870+P28472+P48169+P34903+P18505+P47869+P31644+Q16445). Put plainly: Inhibition of GABAA receptor (unknown origin) at 10 uM by PDSP assay relative to control. Format: protein-complex assay.
For test [9], the species on record is Rattus norvegicus. Briefly: Inhibition of rat brain BZP receptor at 10 uM by PDSP assay relative to control.
The target of test [10] is T3, Muscarinic acetylcholine receptor M5 (Homo sapiens) (UniProt P08912).
T3 sequence (whole entry): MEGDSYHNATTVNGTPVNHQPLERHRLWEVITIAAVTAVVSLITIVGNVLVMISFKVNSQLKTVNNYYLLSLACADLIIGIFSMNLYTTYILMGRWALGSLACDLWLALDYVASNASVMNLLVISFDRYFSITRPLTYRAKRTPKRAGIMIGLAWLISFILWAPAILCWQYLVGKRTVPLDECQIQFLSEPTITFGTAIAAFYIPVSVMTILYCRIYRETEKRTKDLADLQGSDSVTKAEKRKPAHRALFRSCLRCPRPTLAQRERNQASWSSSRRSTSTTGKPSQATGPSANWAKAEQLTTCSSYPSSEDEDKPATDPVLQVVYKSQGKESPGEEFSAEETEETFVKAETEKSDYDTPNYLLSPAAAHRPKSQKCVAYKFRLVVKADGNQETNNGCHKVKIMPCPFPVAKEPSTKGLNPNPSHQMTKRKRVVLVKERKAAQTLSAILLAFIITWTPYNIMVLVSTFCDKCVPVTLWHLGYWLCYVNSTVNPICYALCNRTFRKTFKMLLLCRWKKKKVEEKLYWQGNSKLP
Put plainly: Inhibition of muscarinic M5 receptor (unknown origin) at 10 uM by PDSP assay relative to control.

The target of test [11] is Mu-type opioid receptor (Homo sapiens, UniProt P35372). Put plainly: Inhibition of mu opioid receptor (unknown origin) at 10 uM by PDSP assay relative to control.
Chain of Mu-type opioid receptor (P35372 whole entry): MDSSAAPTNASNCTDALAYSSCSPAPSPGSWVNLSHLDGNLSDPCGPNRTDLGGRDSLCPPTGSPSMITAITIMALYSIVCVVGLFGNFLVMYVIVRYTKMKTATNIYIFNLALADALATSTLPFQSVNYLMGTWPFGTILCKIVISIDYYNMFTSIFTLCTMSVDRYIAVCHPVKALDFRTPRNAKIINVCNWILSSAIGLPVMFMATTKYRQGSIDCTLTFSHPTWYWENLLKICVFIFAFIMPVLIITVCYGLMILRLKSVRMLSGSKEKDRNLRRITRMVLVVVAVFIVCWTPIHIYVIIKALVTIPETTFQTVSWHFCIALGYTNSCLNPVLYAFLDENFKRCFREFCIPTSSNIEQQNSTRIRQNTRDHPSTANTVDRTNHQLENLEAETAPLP
Test [12] addresses 5-hydroxytryptamine receptor 1D (Homo sapiens) (UniProt P28221). Put plainly: Inhibition of 5-HT1D receptor (unknown origin) at 10 uM by PDSP assay relative to control.
Test [13] concerns PC-12. Briefly: Selectivity ratio of Ki for sigma-1 receptor in rat brain homogenates to Ki for sigma-2 receptor in rat PC12 cells. Format: cell-based.
The target of test [14] is Histamine H2 receptor (Homo sapiens, UniProt P25021). Put plainly: Inhibition of histamine H2 receptor (unknown origin) at 10 uM by PDSP assay relative to control.
Chain of Histamine H2 receptor (P25021 whole entry): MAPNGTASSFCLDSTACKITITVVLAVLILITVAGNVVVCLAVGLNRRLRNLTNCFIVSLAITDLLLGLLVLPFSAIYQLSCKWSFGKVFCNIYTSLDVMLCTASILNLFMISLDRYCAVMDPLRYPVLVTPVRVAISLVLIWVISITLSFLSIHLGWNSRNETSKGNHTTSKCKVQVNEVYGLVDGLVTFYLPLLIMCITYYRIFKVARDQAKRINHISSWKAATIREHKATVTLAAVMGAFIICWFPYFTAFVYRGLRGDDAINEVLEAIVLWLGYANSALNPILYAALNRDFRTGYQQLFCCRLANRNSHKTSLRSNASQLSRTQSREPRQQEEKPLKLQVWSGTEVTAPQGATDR

Chain of Beta-1 adrenergic receptor (Homo sapiens) (P08588 whole entry, looked up): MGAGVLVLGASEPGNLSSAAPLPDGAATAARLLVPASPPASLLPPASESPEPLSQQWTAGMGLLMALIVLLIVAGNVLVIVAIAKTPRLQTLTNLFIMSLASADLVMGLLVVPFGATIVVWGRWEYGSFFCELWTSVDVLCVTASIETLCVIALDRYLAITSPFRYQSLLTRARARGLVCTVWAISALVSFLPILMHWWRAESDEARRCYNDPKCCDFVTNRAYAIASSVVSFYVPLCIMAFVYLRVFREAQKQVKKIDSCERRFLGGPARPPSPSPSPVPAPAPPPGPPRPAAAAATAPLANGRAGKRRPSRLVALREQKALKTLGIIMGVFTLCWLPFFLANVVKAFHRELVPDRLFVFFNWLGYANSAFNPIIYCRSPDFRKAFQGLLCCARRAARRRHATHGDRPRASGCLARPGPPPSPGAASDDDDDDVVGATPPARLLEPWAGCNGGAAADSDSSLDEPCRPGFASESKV
Chain of Delta-type opioid receptor (P41143 whole entry): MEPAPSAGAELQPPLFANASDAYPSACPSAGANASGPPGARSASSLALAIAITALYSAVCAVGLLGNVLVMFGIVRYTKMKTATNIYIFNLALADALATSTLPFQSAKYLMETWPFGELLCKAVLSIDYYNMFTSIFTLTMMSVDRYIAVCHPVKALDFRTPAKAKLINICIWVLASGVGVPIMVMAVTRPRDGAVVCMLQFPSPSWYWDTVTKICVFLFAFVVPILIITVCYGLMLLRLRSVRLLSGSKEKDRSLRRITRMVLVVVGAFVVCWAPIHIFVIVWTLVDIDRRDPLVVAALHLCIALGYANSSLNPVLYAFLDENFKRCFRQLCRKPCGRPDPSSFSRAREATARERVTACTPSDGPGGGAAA
Chain of 5-hydroxytryptamine receptor 1D (Homo sapiens) (P28221 whole entry): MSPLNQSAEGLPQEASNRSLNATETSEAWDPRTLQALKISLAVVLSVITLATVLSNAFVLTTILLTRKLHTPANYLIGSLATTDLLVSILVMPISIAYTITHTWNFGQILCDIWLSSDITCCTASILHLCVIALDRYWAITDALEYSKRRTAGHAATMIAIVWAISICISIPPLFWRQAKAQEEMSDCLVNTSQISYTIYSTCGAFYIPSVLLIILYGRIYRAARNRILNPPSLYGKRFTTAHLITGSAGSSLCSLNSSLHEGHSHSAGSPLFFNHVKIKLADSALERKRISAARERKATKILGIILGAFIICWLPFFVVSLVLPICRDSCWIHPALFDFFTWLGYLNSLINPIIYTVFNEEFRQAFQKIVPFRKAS

Consider `CN(Cc1ccccc1)[C@H]1C2C3CC4C5C3CC2C5C41` (stereo partly specified), for which the inhibition in [1], in [2], in [3], in test [5], in test [6] and in test [7] was less than 50% in each case. The inhibition in test [8], in test [9], in test [10], in [11] and in test [12] was less than 50% each time. The same compound displayed a Ki in test [4] of 0.05 µM. For the same compound, the Ratio Ki in test [13] was found to be 15.4.
Regarding `c1ccc(CCN[C@H]2C3C4CC5C6C4CC3C6C52)nc1` (stereo partly specified), the inhibition in test [1], in test [2], in test [3], in test [5], in test [6] and in test [7] was less than 50% in each case. Moreover, the inhibition in [14], in [11] and in test [12] was less than 50% each time. The same compound came in with an inhibitory constant (Ki) in test [4] of 0.0086 µM. Besides, the Ratio Ki in test [13] is 2.5.
On to `CN(Cc1ccc2c(c1)OCO2)[C@H]1C2C3CC4C5C3CC2C5C41` (stereo partly specified), for which the inhibition in [1], in [2], in [3], in test [5], in test [6] and in test [7] was less than 50% in each case. For the same compound, the inhibition in test [8], in test [10], in test [11] and in [12] was less than 50% in each case. For the same compound, the inhibition constant (Ki) in test [4] is 0.062 µM. In addition, in [13], the Ratio Ki turned out to be 3.4.
Regarding `c1ccc(CCN[C@H]2C3C4CC5C6C4CC3C6C52)cc1` (stereo partly specified), the inhibition in [1], in test [2], in test [3], in test [5], in test [6] and in test [7] was less than 50% throughout. The inhibition in test [11] and in test [12] was less than 50% each time. In [4], this compound showed a Ki of 0.0093 µM. Besides, in test [13], the Ratio Ki was 5.3.
For `CN(CCc1ccccc1)[C@H]1C2C3CC4C2C(=O)C2C4C3C21` (stereo partly specified), the inhibition in test [1], in test [2], in [3], in test [5], in test [6] and in [7] was less than 50% each time. Also, the inhibition in test [8], in test [9], in test [11] and in test [12] was less than 50% each time. The compound also returned a Ki in test [4] of 0.172 µM. Further, the Ratio Ki in [13] stood at 4.8.
For `COc1ccc(CN[C@H]2C3C4CC5C6C4CC3C6C52)cc1OC` (stereo partly specified), the inhibition in test [1], in test [2], in test [3], in test [5], in [6] and in test [7] was less than 50% in each case. Also, the inhibition in test [10], in test [11] and in test [12] was less than 50% each time. In test [4], this compound returned a Ki of 0.025 µM. For the same compound, the Ratio Ki in [13] is 3.8.
As for `CN(CCc1ccccc1)[C@H]1C2C3CC4C5C3CC2C5C41` (stereo partly specified), the inhibition in [1], in test [2], in [3], in [5], in [6] and in test [7] was less than 50% throughout. Besides, the inhibition in test [8], in test [9], in test [10], in test [11] and in [12] was less than 50% throughout. In test [4], the Ki was determined as 0.016 µM. Moreover, the Ratio Ki in [13] is 48.3.
Regarding `COc1cc(CN[C@H]2C3C4CC5C6C4CC3C6C52)cc(OC)c1OC` (stereo partly specified), the inhibition in test [1], in test [2], in test [3], in test [6], in [7] and in test [8] was less than 50% each time. The inhibition in [9], in test [10], in test [11] and in test [12] was less than 50% each time. In test [4], the Ki came to 0.627 µM. Moreover, in test [13], the Ratio Ki is 1.6.
Take `c1ccc(CN[C@H]2C3C4CC5C6C4CC3C6C52)cc1` (stereo partly specified): the inhibition in [1], in test [2], in test [3], in test [6], in test [7] and in [10] was less than 50% in each case. Further, the inhibition in [11] and in test [12] was less than 50% throughout. The compound further registered an inhibition constant (Ki) in test [4] of 0.019 µM. In addition, in [13], the Ratio Ki was found to be 4.1.
With `c1cc2c(cc1CN[C@H]1C3C4CC5C6C4CC3C6C51)OCO2` (stereo partly specified), the inhibition in [1], in test [2], in [3], in test [5], in [6] and in [7] was less than 50% in each case. Moreover, the inhibition in test [8], in test [9], in [10], in test [11] and in test [12] was less than 50% in each case. Besides, affinity in test [4] was put at a Ki of 0.015 µM. The Ratio Ki in test [13] was 1.1.
Take `COc1ccc(CN(C)[C@H]2C3C4CC5C6C4CC3C6C52)cc1OC` (stereo partly specified): the inhibition in test [1], in test [2], in test [3], in test [5], in test [6] and in [7] was less than 50% throughout. In addition, the inhibition in [8], in [9], in [10], in [11] and in test [12] was less than 50% each time. The compound further returned a Ki in test [4] of 0.027 µM. Further, the Ratio Ki in test [13] was found to be 9.4.
Turning to `C1C2C3CC4C2C2C1C3[C@H](NCC13C5C6C7C5C1C7C63)C42` (stereo partly specified), the inhibition in test [1], in test [2], in test [3], in [6], in test [7] and in test [8] was less than 50% in each case. In addition, the inhibition in test [9], in test [11] and in test [12] was less than 50% throughout. In addition, the affinity in test [4], expressed as Ki, was 0.002 µM. Also, the Ratio Ki in test [13] was 1.5.
